In US20250049812A1, “Compounds that Inhibit Necroptosis and Their Preparation Methods” (SHANGHAI INSTITUTE OF ORGANIC CHEMISTRY, CHINESE ACADEMY OF …, priority 2021, published 2025):
Where two headings read alike, the source gives them in different places.

System: Jurkat FADD (−/−) Cells
Assay: TNF-α induced necroptosis of Jurkat FADD-deficient cells (CellTiter-Glo cell survival)
Assay type: cell-based, human
Details: Homo sapiens
Method: 1. Cell Activity Testing System (TNF-α Induces the Necroptosis of Jurkat Cells, the Human Leukemia Cells Deficient in FADD).
(1) Cell culture: Jurkat FADD-deficient cells were cultured in an RPMI 1640 medium with 10% fetal bovine serum (FBS), 100 U/mL penicillin, and 100 […]. The cells were cultured in a cell culture incubator at 37° C. with 5% CO2. And all the cells were cryopreserved in a complete medium containing 5-10% DMSO. Medium change and passage were performed 3-4 times per week.
(4) Experimental scheme: The system of TNF-α inducing the necroptosis of Jurkat FADD-deficient cells was used to screen for compounds with RIPKl kinase inhibitory activity.
Jurkat FADD-deficient cells were evenly inoculated into a 384-well plate with each well added with a 40 μL complete culture medium, followed by the addition of 5 μL of the under-testing compound to each well. The initial concentration of the compounds was set at 25 μM (for some compounds with higher activity, the initial concentration was set at 0.5 μM), with a three-fold gradient dilution, totaling 12 gradient points. Three replicate wells were set for each compound. In addition, there was a blank control group and a control group with TNFα stimulation only. After the compound was added, the mixture needed to be centrifuged and incubated in a cell culture incubator at 37° C. containing 5% CO2 for 1 hour. After that, 5 μL of 5 ng/mL TNFα was added to stimulate the occurrence of necroptosis. After centrifugation and mixing, the mixture was placed in the cell culture incubator for 13 hours (until the cell death rate reaches 65% in the group with only TNF-α), with a total volume of 50 μL per well. Then, the steps below were followed to test the cell survival rate.
The CellTiter-Glo® Buffer was removed from the reagent kit, equilibrated to room temperature, and used to dissolve the CellTiter-Glo® Substrate. The CellTiter-Glo® Reagent obtained could be directly used for the experiment.
15 μL of CellTiter-Glo® Reagent which has been equilibrated to room temperature was added to each well, and incubated in the dark for 15 minutes. After that, a microplate reader (Enspire Multimode Plate Reader of PerkinElmer, USA) was used to measure the chemiluminescence.

[1] = TNF-α induced necroptosis, Jurkat FADD-deficient cells, 13 hours, CellTiter-Glo, read-out: IC50

| Structure (SMILES) | IC50 [1] | IC50 (Jurkat, 13 h) |
| --- | --- | --- |
| CN1C(=O)C(NC(=O)c2nnc(Cc3ccccc3)[nH]2)Cc2cn(C3CC3)c3cccc1c23 (racemic) [T-23, (±)-5-benzyl-N-(6-cyclopropyl-1-methyl-2-oxo-2,3,4,6-tetrahydro-1H-azacyclo [4,3,2-cd]indol-3-yl)-4H-1,2,4-triazole-3-carboxamide] | 0.1 to 1 µM | – |
| CN1C(=O)C(NC(=O)c2nnc(Cc3ccccc3)[nH]2)Cc2cn(-c3ccccc3)c3cccc1c23 (racemic) [T-24, (±)-5-benzyl-N-(1-methyl-2-oxo-6-phenyl-2,3,4,6-tetrahydro-1H-azacyclo [4,3,2-cd]indol-3-yl)-4H-1,2,4-triazole-3-carboxamide] | 0.01 to 0.1 µM | – |
| CN1C(=O)C(NC(=O)c2nnc(Cc3ccccc3)[nH]2)Cc2cn(CC#N)c3cccc1c23 (racemic) [T-25, (±)-5-benzyl-N-(6-(cyanomethyl)-1-methyl-2-oxo-2,3,4,6-tetrahydro-1H-azacyclo [4,3,2-cd]indol-3-yl)-4H-1,2,4-triazole-3-carboxamide] | < 0.01 µM | – |
| CN1C(=O)C(NC(=O)c2nnc(Cc3ccccc3)[nH]2)Cc2cn(CCF)c3cccc1c23 (racemic) [T-26, (±)-5-benzyl-N-(6-(2-fluoroethyl)-1-methyl-2-oxo-2,3,4,6-tetrahydro-1H-azacyclo [4,3,2-cd]indol-3-yl)-4H-1,2,4-triazole-3-carboxamide] | 0.01 to 0.1 µM | – |
| CC(C#N)Cn1cc2c3c(cccc31)N(C)C(=O)C(NC(=O)c1nnc(Cc3ccccc3)[nH]1)C2 (racemic) [T-27, (±)-5-benzyl-N-(6-(2-cyanopropyl)-1-methyl-2-oxo-2,3,4,6-tetrahydro-1H-azacyclo [4,3,2-cd]indol-3-yl)-4H-1,2,4-triazole-3-carboxamide] | 0.01 to 0.1 µM | – |
| COCCn1cc2c3c(cccc31)N(C)C(=O)C(NC(=O)c1nnc(Cc3ccccc3)[nH]1)C2 (racemic) [T-28, (±)-5-benzyl-N-(6-(2-methoxyethyl)-1-methyl-2-oxo-2,3,4,6-tetrahydro-1H-azacyclo [4,3,2-cd]indol-3-yl)-4H-1,2,4-triazole-3-carboxamide] | < 0.01 µM | – |
| COC(=O)Cn1cc2c3c(cccc31)N(C)C(=O)C(NC(=O)c1nnc(Cc3ccccc3)[nH]1)C2 (racemic) [T-29, (±)-methyl2-(3-(5-benzyl-4H-1,2,4-triazole-3-carboxamide)-1-methyl-2-oxo-1,2,3,4-tetrahydro-6H-azacyclo [4,3,2-cd]indol-6-yl)acetate] | – | < 0.01 µM |
| CN1C(=O)C(NC(=O)c2nnc(Cc3ccccc3)[nH]2)Cc2cn(CC(=O)O)c3cccc1c23 (racemic) [T-30, (±)-2-(3-(5-benzyl-4H-1,2,4-triazole-3-carboxamide)-1-methyl-2-oxo-1,2,3,4-tetrahydro-6H-azacyclo [4,3,2-cd]indol-6-yl)acetic Acid] | 0.1 to 1 µM | – |
| CN1C(=O)C(NC(=O)c2nnc(Cc3ccccc3)[nH]2)Cc2cn(CC(N)=O)c3cccc1c23 (racemic) [T-31, (±)-N-(6-(2-amino-2-oxoethyl)-1-methyl-2-oxo-2,3,4,6-tetrahydro-1H-azacyclo [4,3,2-cd]indol-3-yl)-5-benzyl-4H-1,2,4-triazole-3-carboxamide] | 0.1 to 1 µM | – |
| CN1C(=O)C(N2CCc3c(nn(Cc4ccccc4)c3Cl)C2=O)Cc2c[nH]c3cccc1c23 (racemic) [T-32, (±)-3-(2-benzyl-3-chloro-7-oxo-2,4,5,7-tetrahydro-6H-pyrazole [3,4-c]pyridin-6-yl)-1-methyl-1,3,4,6-tetrahydro-2H-azacyclo [4,3,2-cd] indole-2-one] | < 0.01 µM | – |
| CN1C(=O)C(NC(=O)c2nnc(Cc3ccccc3)[nH]2)Cc2cn(CCO)c3cccc1c23 (racemic) [T-33, (±)-5-benzyl-N-(6-(2-hydroxyethyl)-1-methyl-2-oxo-2,3,4,6-tetrahydro-1H-azacyclo [4,3,2-cd]indol-3-yl)-4H-1,2,4-triazole-3-carboxamide] | – | 0.01 to 0.1 µM |
| CN1C(=O)C(NC(=O)c2nnc(Cc3ccccc3)[nH]2)Cc2cn(Cc3cnn(C)c3)c3cccc1c23 (racemic) [T-35, (±)-5-benzyl-N-(1-methyl-6-((1-methyl-1H-pyrazol-4-yl)methyl)-2-oxo-2,3,4,6-tetrahydro-1H-azacyclo [4,3,2-cd]indol-3-yl)-4H-1,2,4-triazole-3-carboxamide] | < 0.01 µM | – |
| CN1C(=O)C(NC(=O)c2nnc(Cc3ccccc3)[nH]2)Cc2cn(-c3ccnn3C)c3cccc1c23 (racemic) [T-36, (±)-5-benzyl-N-(1-methyl-6-(1-methyl-1H-pyrazol-5-yl)-2-oxo-2,3,4,6-tetrahydro-1H-azacyclo [4,3,2-cd]indol-3-yl)-4H-1,2,4-triazole-3-carboxamide] | < 0.01 µM | – |
| CN1C(=O)C(NC(=O)c2nnc(Cc3ccccc3)[nH]2)Cc2cn(-c3ccn(C)n3)c3cccc1c23 (racemic) [T-37, (±)-5-benzyl-N-(1-methyl-6-(1-methyl-1H-pyrazol-3-yl)-2-oxo-2,3,4,6-tetrahydro-1H-azacyclo [4,3,2-cd]indol-3-yl)-4H-1,2,4-triazole-3-carboxamide] | < 0.01 µM | – |
| CN1C(=O)C(NC(=O)c2nnc(Cc3ccccc3)[nH]2)Cc2cn(CCN3CCOCC3)c3cccc1c23 (racemic) [T-38, (±)-5-benzyl-N-(1-methyl-6-(2-morpholinoethyl)-2-oxo-2,3,4,6-tetrahydro-1H-azacyclo [4,3,2-cd]indol-3-yl)-4H-1,2,4-triazole-3-carboxamide] | – | < 0.01 µM |
| CN1C(=O)C(NC(=O)c2nnc(Cc3ccccc3)[nH]2)Cc2cn(C(=O)C(C)(C)C)c3cccc1c23 (racemic) [T-39, (±)-5-benzyl-N-(1-methyl-2-oxo-6-pivaloyl-2,3,4,6-tetrahydro-1H-azacyclo [4,3,2-cd]indol-3-yl)-4H-1,2,4-triazole-3-carboxamide] | 0.01 to 0.1 µM | – |
| COc1cccnc1-n1cc2c3c(cccc31)N(C)C(=O)C(NC(=O)c1nnc(Cc3ccccc3)[nH]1)C2 (racemic) [T-41, (±)-5-benzyl-N-(6-(3-methoxypyridin-2-yl)-1-methyl-2-oxo-2,3,4,6-tetrahydro-1H-azacyclo [4,3,2-cd]indol-3-yl)-4H-1,2,4-triazole-3-carboxamide] | < 0.01 µM | – |
| COCc1ccncc1-n1cc2c3c(cccc31)N(C)C(=O)C(NC(=O)c1nnc(Cc3ccccc3)[nH]1)C2 (racemic) [T-42, (±)-5-benzyl-N-(6-(4-(methoxymethyl)pyridin-3-yl)-1-methyl-2-oxo-2,3,4,6-tetrahydro-1H-azacyclo [4,3,2-cd]indol-3-yl)-4H-1,2,4-triazole-3-carboxamide] | < 0.01 µM | – |
| COC(=O)c1cccnc1-n1cc2c3c(cccc31)N(C)C(=O)C(NC(=O)c1nnc(Cc3ccccc3)[nH]1)C2 (racemic) [T-43, (±)-2-(3-(5-benzyl-4H-1,2,4-triazole-3-carboxamide)-1-methyl-2-oxo-1,2,3,4-tetrahydro-6H-azacyclo [4,3,2-cd]indol-6-yl)nicotinate] | < 0.01 µM | – |
| Cc1cccnc1-n1cc2c3c(cccc31)N(C)C(=O)C(NC(=O)c1nnc(Cc3ccccc3)[nH]1)C2 (racemic) [T-44, (±)-5-benzyl-N-(1-methyl-6-(3-methylpyridin-2-yl)-2-oxo-2,3,4,6-tetrahydro-1H-azacyclo [4,3,2-cd]indol-3-yl)-4H-1,2,4-triazole-3-carboxamide] | < 0.01 µM | – |
| CN1C(=O)C(NC(=O)c2nnc(Cc3ccccc3)[nH]2)Cc2c[nH]c3cc(C#Cc4cnn(C)c4)cc1c23 (racemic) [T-45, (±)-5-benzyl-N-(1-methyl-8-((1-methyl-1H-pyrazol-4-yl)ethynyl)-2-oxo-2,3,4,6-tetrahydro-1H-aza [4,3,2-cd]indol-3-yl)-4H-1,2,4-triazole-3-carboxamide] | < 0.01 µM | – |
| CN1C(=O)C(NC(=O)c2nnc(Cc3ccccc3)[nH]2)Cc2cn(-c3ncccc3C(=O)O)c3cccc1c23 (racemic) [T-46, (±)-2-(3-(5-benzyl-4H-1,2,4-triazole-3-carboxamide)-1-methyl-2-oxo-1,2,3,4-tetrahydro-6H-azacyclo [4,3,2-cd]indol-6-yl)nicotinic Acid] | 0.1 to 1 µM | – |
| CN1C(=O)C(NC(=O)c2nnc(Cc3ccccc3)[nH]2)Cc2cn(-c3ncccc3O)c3cccc1c23 (racemic) [T-47, (±)-5-benzyl-N-(6-(3-hydroxypyridin-2-yl)-1-methyl-2-oxo-2,3,4,6-tetrahydro-1H-azacyclo [4,3,2-cd]indol-3-yl)-4H-1,2,4-triazole-3-carboxamide] | 0.1 to 1 µM | – |
| CN1C(=O)C(NC(=O)c2nnc(Cc3ccccc3)[nH]2)Cc2cn(-c3cnccc3CO)c3cccc1c23 (racemic) [T-48, (±)-5-benzyl-N-(6-(4-(hydroxymethyl)pyridin-3-yl)-1-methyl-2-oxo-2,3,4,6-tetrahydro-1H-azacyclo [4,3,2-cd]indol-3-yl)-4H-1,2,4-triazole-3-carboxamide] | < 0.01 µM | – |
